From patent US20110129467A1, “THERAPEUTIC COMBINATION COMPRISING AN AURORA KINASE INHIBITOR AND ANTIPROLIFERATIVE AGENTS” (NERVIANO MEDICAL SCIENCES S.R.L., priority 2008, published 2011)
Like-named read-outs stand apart in the source and are kept apart here.

Legend:
[1] = tested on: HL-60 human acute myeloid leukaemia cells; settings: HL-60 sc in SCID mice; for T-C: delay vs control to reach 1 g
Method: The treatment started 12 days later tumor cells injection when tumors were palpable.
When combined, Compound 1 was administered in the interval between the bortezomib treatments at days 13, 14, 15, 17, 18, 19, 21, 22, 23, 25, 26 and 27. […] Tumor growth was assessed by caliper.

[2] = tested on: HL-60 human acute myeloid leukaemia cells; settings: HL-60 model; previously demonstrated; cited from earlier work
[3] = tested on: DU145 prostate carcinoma cells; assay: In vivo antitumor efficacy, DU145 prostate carcinoma subcutaneous xenograft in athymic mice; settings: Compound 1 15 mg/kg ip BID, Bevacizumab 20 mg/kg ip days 9, 13, 17; for Time to reach 1 g / T-C: DU145 sc in athymic mice; for T-C: delay vs control to reach 1 g
Method: Balb, Nu\Nu male mice, from Harlan (Italy), were maintained in cages with paper filter cover, food and bedding sterilized and water acidified. 2.5×10^6 DU145 prostate carcinoma cells (from the American Type Culture Collection) were injected subcutaneously in athymic mice. […] The treatment started at day 9 after cell injection, when tumors were palpable with a tumor weight mean for all the groups of 0.15 g.
Bevacizumab was administered intraperitoneally in a volume of 10 ml/kg at the dose of 20 mg/kg on days 9, 13, 17 from the days of tumor cells injection. […] Tumor growth and body weight were measured every 3 days. Tumor growth was assessed by caliper. […] This delay (T-C value) was defined as the difference of time (in days) required for the treatment group (T) and the control group(C) tumors to reach a predetermined size (1 g). Toxicity was evaluated on the basis of body weight reduction.

[4] = tested on: DU145 prostate carcinoma cells; settings: previously demonstrated (The Prostate 36: 1-10, 1998); cited from earlier work
[5] = Bortezomib 1 mg/kg iv days 12, 16, 20, 24 (combination: + Compound 1 15 mg/kg ip)
[6] = Compound 1 15 mg/kg ip BID, Bortezomib 0.5 mg/kg iv days 12, 16, 20, 24

In the case of `CC(C)C[C@H](NC(=O)[C@H](Cc1ccccc1)NC(=O)c1cnccn1)B(O)O` [Bortezomib], the “Time to reach 1 g” value [1, 5] is reported as 23.8 days, the “Time to reach 1 g” value [1, 6] is reported as 19 days and the “T-C” value [1, 5] is reported as 8.2 days. For the same compound, the “T-C” value [1, 6] was 3.4 days.
In the case of `CO[C@@H](C(=O)N1Cc2[nH]nc(NC(=O)c3ccc(N4CCN(C)CC4)cc3)c2C1)c1ccccc1` [Compound 1, N-{5-[(2R)-2-methoxy-2-phenylethanoyl]-1,4,5,6-tetrahydropyrrolo[3,4-c]pyrazol-3-yl}-4-(4-methylpiperazin-1-yl)benzamide], the “Time to reach 1 g” value [1, 6] is listed as 24.7 days, the “T-C” value [1, 6] is listed as 9.1 days and the “effect on growth of the tumor model in vivo” value [2] is listed as “inhibits growth of the model in vivo”. For the same compound, the “Time to reach 1 g” value [3] was 23.9 days and the “T-C” value [3] was 8.5 days.
For “Bevacizumab: antibody to vascular endothelial growth factor; marketed as Avastin”, the “effect on angiogenesis and growth of the tumor model in vivo” value [4] is given as “inhibits angiogenesis and growth of the model in vivo”, the “Time to reach 1 g” value [3] is given as 18.5 days and the “T-C” value [3] is given as 3.1 days. The Toxicity ([3]; evaluated on body weight reduction) was 0/8.
